pIC50: −log10 of the molar value.
Key:
[1] = tested on: THP1-Dual cells, NF-κB pathway (SEAP); assay: THP-1 Dual cell SEAP assay (L18-MDP stimulated); assay type: cell-based; conditions: Homo sapiens, 10 ng/mL L18-MDP, 20-24 h, SEAP readout, read-out: IFNγ THP1 IC50
Procedure, shortened: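 About 25,000 THP1-Dual cells per well were preincubated 30 min with serially diluted compound, then stimulated overnight (20-24 h, 37 °C) with 10 ng/mL L18-MDP (final). NF-κB-driven SEAP in supernatant was read with QUANTI-Blue at OD 620-655 nm after 2 h; % inhibition versus DMSO/L18-MDP wells was fitted by non-linear regression to give IC50.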

RIPK2 (KD)/XIAP (BIR2) = target: T1, RIPK2 (KD)/XIAP (BIR2) (Homo sapiens, UniProt O43353); assay: RIPK2-XIAP binding competition PPI assay (TR-FRET); conditions: for Emax: 50 nM of GSK583 = -100% activity, read-out: PPI Amax; for pIC50: GST-RIPK2 / His-XIAP (BIR2)-avi, 120 min at 23° C.
T1 construct: made in house; host or cells: baculovirus-infected Sf9 cells
Procedure, shortened: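 TR-FRET competition between GST-RIPK2 (aa 1-310, 1 nM) and His-XIAP BIR2-avi (aa 152-231, 25 nM), both Sf9-expressed, detected with anti-His-XL665 and anti-GST-Tb in Tris pH 7.5 buffer with MgCl2, DTT and vanadate. Incubation was 120 min at 23 °C; the 665/520 nm ratio was normalized to no inhibitor (0%) and 50 nM GSK583 (−100%).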

[2] = target: T2, GST-RIPK2 fusion protein (human RIPK2 amino acids 1-310) (Homo sapiens, UniProt O43353); assay: RIPK2 binding competition assay (TR-FRET, Tracer 199); conditions: displacement of Tracer 199 (10 nM), 45 min at 22° C.
T2 construct: made in house; host or cells: baculovirus-infected Sf9 cells
Description: The ability of selected compounds of Formulas (I) and (II) to inhibit the binding of an Alexa647-labelled ATP-competitive kinase inhibitor to a GST-RIPK2 fusion protein was quantified employing the TR-FRET-based RIPK2 binding competition assay as described in the following paragraphs.
Recombinant fusion protein of N-terminal Glutathione-S-Transferase (GST) and a fragment of human RIPK2 (amino acids 1-310 of accession number 043353), expressed in baculovirus infected Sf9 cells, purified via glutathione affinity chromatography, was used as GST-RIPK2 fusion protein. Tracer 199 from Life Technologies (catalogue no. PR9115B) was used as Alexa647-labelled ATP-competitive kinase inhibitor.
For the assay, 50 nL of a 100-fold concentrated solution of each test compound in DMSO was pipetted into either a black low volume 384-well microtiter plate or a black 1536-well microtiter plate (both Greiner Bio-One, Frickenhausen, Germany), 3 μL solution of Tracer 199 (16.7 nM=>final concentration in 5 μL assay volume is 10 nM) in aqueous assay buffer (25 mM Tris/HCl pH 7.5, 10 mM magnesium chloride (MgCl2), 5 mM β-glycerophosphate, 2.5 mM dithiothreitol (DTT), 0.5 mM ethylene glycol-bis(2-aminoethylether)-N,N,N′,N′-tetraacetic acid (EGTA), 0.5 mM sodium ortho-vanadate, 0.01% (w/v) bovine serum albumin (BSA), 0.005% (w/v) Pluronic F-127 (Sigma)) were added. Then the binding competition was started by the addition of 2 μL of a solution of the GST-RIPK2 fusion protein (2.5 nM=>final conc. in the 5 μL assay volume is 1 nM) and of Anti-GST-Tb (1.25 nM=>final conc. in the 5 μL assay volume is 0.5 nM), a Lumi4®—Tb cryptate-conjugated anti-GST antibody from PerkinElmer (catalogue no 61GSTTAH), in assay buffer.
The resulting mixture was incubated 45 min at 22° C. to allow the formation of a complex between the Tracer 199, the fusion protein and Anti-GST-Tb. Subsequently, the amount of this complex was evaluated by measurement of the resonance energy transfer from the Tb-cryptate to the Tracer 199. Therefore, the fluorescence emissions at 620 nm and 665 nm after excitation at 337 nm were measured in a TR-FRET reader, e.g. a Pherastar FS(BMG Labtechnologies, Offenburg, Germany) or a Viewlux (PerkinElmer). The ratio of the emissions at 665 nm and at 620 nm was taken as the measure of the amount of the complex. The data were normalized (assay reaction without inhibitor=0% activity, all other assay components but no GST-RIPK2 fusion protein=−100% activity).

T1 sequence (O43353 1-310): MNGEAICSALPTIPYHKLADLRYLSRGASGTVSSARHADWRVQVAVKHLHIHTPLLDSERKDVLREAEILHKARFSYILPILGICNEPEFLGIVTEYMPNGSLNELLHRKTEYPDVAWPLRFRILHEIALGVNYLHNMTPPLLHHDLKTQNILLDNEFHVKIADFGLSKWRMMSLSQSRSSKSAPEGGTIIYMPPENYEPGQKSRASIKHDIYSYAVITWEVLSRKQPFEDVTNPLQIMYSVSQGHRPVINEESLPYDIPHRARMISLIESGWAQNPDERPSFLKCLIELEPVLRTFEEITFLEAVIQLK
T2 sequence (O43353 1-310): as above

Structure (SMILES) | pIC50 [1] | Emax (RIPK2 (KD)/XIAP (BIR2)) [%] | pIC50 (RIPK2 (KD)/XIAP (BIR2)) | pIC50 [2]
COc1cc2ncc(-c3cc(NC(=O)C4(F)CCCCC4)n(C)n3)n2cc1S(=O)(=O)C(C)(C)C [Example 176, N-(3-(6-(tert-butylsulfonyl)-7-methoxyimidazo[1,2-a]pyridin-3-yl)-1-methyl-1H-pyrazol-5-yl)-1-fluorocyclohexane-1-carboxamide] | 5.60 to 6.30 | ≥ 80 | 6.00 to 7.00 | > 6.70
COc1cc2ncc(-n3cc(N4CCC5(CCCCC5)C4=O)cn3)n2cc1S(=O)(=O)C(C)(C)C [Example 181, 2-(1-(6-(tert-butylsulfonyl)-7-methoxyimidazo[1,2-a]pyridin-3-yl)-1H-pyrazol-4-yl)-2-azaspiro[4.5]decan-1-one] | < 5.60 | 30 to 55 | < 6.00 | < 6.00
CN1CCC(Nc2cncc(-c3cc(NC(=O)Cc4ccccc4Cl)n(C)n3)c2)CC1 [Example 184, 2-(2-chlorophenyl)-N-(1-methyl-3-(5-((1-methylpiperidin-4-yl)amino)pyridin-3-yl)-1H-pyrazol-5-yl) acetamide] | < 5.60 | ≥ 80 | 6.00 to 7.00 | > 6.70
COc1cc2ncc(-c3cc(NC(=O)Cc4ccccc4Cl)n(C)n3)n2cc1S(=O)(=O)C(C)(C)C [Example 185, N-(3-(6-(tert-butylsulfonyl)-7-methoxyimidazo[1,2-a]pyridin-3-yl)-1-methyl-1H-pyrazol-5-yl)-2-(2-chlorophenyl)acetamide] | 5.60 to 6.30 | ≥ 80 | 7.00 to 8.00 | > 6.70
COc1cc2ncc(-c3cc(NC(=O)Cc4ccccc4Cl)n(C)n3)n2cc1C1(F)CCN(C)CC1 [Example 186, 2-(2-chlorophenyl)-N-(3-(6-(4-fluoro-1-methylpiperidin-4-yl)-7-methoxyimidazo[1,2-a]pyridin-3-yl)-1-methyl-1H-pyrazol-5-yl)acetamide] | 5.60 to 6.30 | ≥ 80 | 7.00 to 8.00 | > 6.70
COc1cc2ncc(-c3cc(NC(=O)C4(F)CCCCC4)n(CCO)n3)n2cc1S(=O)(=O)C(C)(C)C [Example 193, N-(3-(6-(tert-butylsulfonyl)-7-methoxyimidazo[1,2-a]pyridin-3-yl)-1-(2-hydroxyethyl)-1H-pyrazol-5-yl)-1-fluorocyclohexane-1-carboxamide] | < 5.60 | ≥ 80 | 6.00 to 7.00 | > 6.70
COc1ccn2ncc(-c3cc(NC(=O)C4(F)CCCCC4)n(CCO)n3)c2n1 [compound 194] | < 5.60 | ≤ 30 | < 6.00 | < 6.00

Reference: patent US20260091026A1, “METHODS OF TREATING INFLAMMATORY DISEASES” (INTERLINE THERAPEUTICS, INC., priority 2023, published 2026)
